This note sets out measurements from ChEMBL document CHEMBL4033751, “Synthesis and biological evaluation of caffeic acid derivatives as potent inhibitors of α-MSH-stimulated melanogenesis” (Bioorg Med Chem Lett, 2017).

The term IC50 denotes the concentration needed to halve the response being measured.

Each structure is given as a SMILES string.

Series [1] is described as follows: Cytotoxicity in mouse B16 cells assessed as cell viability at 20 uM by MTT assay. To be noted: read-out: Activity. Format: cell-based. (Tetrazolium dyes change colour on reduction, which living cells bring about.)
Series [2] is described as follows: Cytotoxicity in mouse B16 cells assessed as cell viability at 10 uM by MTT assay. Format: cell-based. Particulars: read-out: Activity.
The test system of another series is B16. The series is described as follows: Inhibition of alpha-MSH-stimulated melanogenesis in mouse B16 cells assessed as reduction in melanin formation. Type of series: functional, cell-based.
Series [3] in a line: Cytotoxicity in mouse B16 cells assessed as cell viability at 5 uM by MTT assay. Type of series: cell-based. Particulars: read-out: Activity.
Series [4] in a line: Cytotoxicity in mouse B16 cells assessed as cell viability at 2.5 uM by MTT assay. Format: cell-based. To be noted: read-out: Activity.
Series [5] is described as follows: Cytotoxicity in mouse B16 cells assessed as cell viability at 40 uM by MTT assay. Type of series: cell-based. To be noted: read-out: Activity.

Regarding `Cc1cccc(CNC(=O)/C=C/c2ccc(O)c(O)c2)c1`, the viability at 20 µM in series [1] turned out to be 45%. For the same compound, in series [2], the viability at 10 µM amounted to 20%. For the same compound, the half-inhibitory concentration (IC50) in the series with B16 turned out to be 3 µM.
For the compound `O=C(/C=C/c1ccc(O)c(O)c1)Nc1ccc([N+](=O)[O-])cc1`, in series [3], the viability at 5 µM fell in the range of 30 to 35%. Moreover, the viability at 10 µM in series [2] fell in the range of 51 to 62%. Further, the half-inhibitory concentration (IC50) in the series on B16 turned out to be 1.4 µM.
For `CCCCc1ccc(NC(=O)/C=C/c2ccc(O)c(O)c2)cc1`, the viability at 5 µM in series [3] was in the range of 68 to 96%. The viability at 2.5 µM in series [4] was in the range of 33 to 49%. In addition, the IC50 in the series with B16 came to 1.2 µM.
`O=C(/C=C/c1ccc(O)c(O)c1)NCc1ccccc1Cl`: the viability at 40 µM in series [5] is 0%. Moreover, the half-maximal inhibitory concentration (IC50) with B16 was found to be 6.5 µM.
On to `COc1ccccc1CNC(=O)/C=C/c1ccc(O)c(O)c1`, for which the viability at 20 µM in series [1] is 20%. For the same compound, the viability at 40 µM in series [5] was in the range of 35 to 46%. Moreover, the IC50 with B16 is 7 µM.
As for `O=C(/C=C/c1ccc(O)c(O)c1)NCc1ccccc1`, the viability at 10 µM in series [2] was 23%. Also, the IC50 in the series on B16 worked out at 8 µM.
Consider `COc1ccc(CNC(=O)/C=C/c2ccc(O)c(O)c2)cc1`, for which, in series [1], the viability at 20 µM amounted to 20%. Moreover, in series [5], the viability at 40 µM lay within 37 to 54%. Besides, the IC50 in the series with B16 came out at 6.2 µM.
Turning to `Cc1ccccc1CNC(=O)/C=C/c1ccc(O)c(O)c1`, in series [1], the viability at 20 µM is 33 to 49%. Further, the viability at 10 µM in series [2] came to 25%. Moreover, in the series with B16, the concentration for half-maximal inhibition (IC50) came to 20 µM.
In the case of `O=C(/C=C/c1ccc(O)c(O)c1)Nc1cccc(C(F)(F)F)c1`, in series [3], the viability at 5 µM was 60 to 82%. The viability at 2.5 µM in series [4] is 22 to 36%. For the same compound, in the series with B16, the IC50 turned out to be 1.4 µM.
On to `O=C(/C=C/c1ccc(O)c(O)c1)NC1CCCC1`, for which the viability at 40 µM in series [5] was found to be 0%. In the series with B16, the IC50 was 30 µM.
As for `O=C(/C=C/c1ccc(O)c(O)c1)NCc1cccc(C(F)(F)F)c1`, in series [3], the viability at 5 µM was found to be 24%. In addition, the viability at 10 µM in series [2] was in the range of 29 to 47%. In addition, in the series with B16, the IC50 was 1.4 µM.
Turning to `CC(C)(C)OC(=O)N1CCN(C(=O)/C=C/c2ccc(O)c(O)c2)CC1`, the viability at 20 µM in series [1] worked out at 31%. Also, in the series on B16, the IC50 was determined as 5.8 µM.
Consider `O=C(/C=C/c1ccc(O)c(O)c1)OC1CCCCC1`, for which the viability at 10 µM in series [2] stood at 30%. Moreover, in the series on B16, the IC50 stood at 7 µM.
Consider `Cc1ccc(CNC(=O)/C=C/c2ccc(O)c(O)c2)cc1`, for which, in series [1], the viability at 20 µM fell in the range of 22 to 30%. In addition, the viability at 10 µM in series [2] was determined as 20%. For the same compound, the half-inhibitory concentration (IC50) in the series with B16 was 3.7 µM.
In the case of `O=C(/C=C/c1ccc(O)c(O)c1)N1CCNCC1`, in series [1], the viability at 20 µM was 31%. For the same compound, in the series with B16, the half-maximal inhibitory concentration (IC50) is more than 40 µM.
With `O=C(/C=C/c1ccc(O)c(O)c1)N1CCCCC1`, the viability at 40 µM in series [5] is 0%. Also, the half-maximal inhibitory concentration (IC50) in the series with B16 came to 24 µM.
`O=C(/C=C/c1ccc(O)c(O)c1)NCc1ccccc1C(F)(F)F`: the viability at 5 µM in series [3] was 22 to 28%. Moreover, the viability at 10 µM in series [2] fell in the range of 33 to 49%. Besides, the IC50 in the series on B16 came out at 1.8 µM.
The corresponding values for `CC(C)c1ccc(NC(=O)/C=C/c2ccc(O)c(O)c2)cc1` are 15%, 82% and 3.4 µM.
On to `COC(=O)[C@]1(O)C[C@@H](O)[C@@H](O)[C@H](OC(=O)/C=C/c2ccc(O)c(O)c2)C1` [CHLOROGENIC ACID METHYL ESTER], for which the IC50 with B16 was more than 40 µM.
Regarding `O=C(/C=C/c1ccc(O)c(O)c1)Nc1cccc([N+](=O)[O-])c1`, in series [3], the viability at 5 µM lay in the range of 24 to 35%. Besides, the viability at 10 µM in series [2] was found to be 48%. The half-maximal inhibitory concentration (IC50) in the series on B16 worked out at 1.9 µM.
Consider `OC[C@H]1O[C@@H](Oc2ccc(O)cc2)[C@H](O)[C@@H](O)[C@@H]1O` [ARBUTIN], for which the IC50 with B16 was 400 µM.
As to `O=C(/C=C/c1ccc(O)c(O)c1)NC1CCCCC1`, the viability at 10 µM in series [2] came to 23%. Besides, the concentration for half-maximal inhibition (IC50) in the series with B16 came out at 2.8 µM.
Take `NS(=O)(=O)c1ccc(CNC(=O)/C=C/c2ccc(O)c(O)c2)cc1`: the viability at 40 µM in series [5] worked out at 0%. Further, in the series on B16, the half-inhibitory concentration (IC50) was more than 40 µM.
Regarding `CC(=O)Oc1ccc(/C=C/C(=O)OC2CCCCC2)cc1OC(C)=O`, the viability at 2.5 µM in series [4] came to 24%. For the same compound, the IC50 in the series with B16 is 0.2 µM.
As to `O=C(/C=C/c1ccc(O)c(O)c1)NCc1cccc(Cl)c1`, in series [1], the viability at 20 µM lay in the range of 59 to 62%. Moreover, the viability at 10 µM in series [2] is 22%. Moreover, the half-maximal inhibitory concentration (IC50) in the series on B16 worked out at 6 µM.
Consider `O=C(CCc1ccc(O)c(O)c1)O[C@@H]1C[C@](O)(C(=O)O)C[C@@H](O)[C@H]1O`, for which the half-inhibitory concentration (IC50) with B16 was more than 40 µM.
The same measure, in the same setting: for `O=c1cc(CO)occ1O` [KOJIC ACID] the value was 57 µM.
Regarding `O=C(/C=C/c1ccc(O)c(O)c1)Nc1ccccc1`, in series [2], the viability at 10 µM worked out at 21%. Besides, the half-maximal inhibitory concentration (IC50) with B16 came to 7.6 µM.
Turning to `Cc1n[nH]c(NC(=O)/C=C/c2ccc(O)c(O)c2)c1-c1ccc(Br)cc1`, the viability at 5 µM in series [3] is 68 to 93%. Moreover, the viability at 2.5 µM in series [4] was 29 to 56%. In addition, the concentration for half-maximal inhibition (IC50) in the series with B16 came to 1 µM.
On to `O=C(/C=C/c1ccc(O)c(O)c1)NCc1ccc(C(F)(F)F)cc1`, for which the viability at 5 µM in series [3] was 26%. The viability at 10 µM in series [2] is 39 to 48%. The IC50 in the series on B16 turned out to be 1.6 µM.
Regarding `O=C(/C=C/c1ccc(O)c(O)c1)Nc1ccc(C(F)(F)F)cc1`, in series [3], the viability at 5 µM lay in the range of 56 to 58%. Also, the viability at 10 µM in series [2] lay within 77 to 90%. In the series with B16, the IC50 stood at 1.4 µM.
Regarding `O=C(/C=C/c1ccc(O)c(O)c1)NCc1ccc(Cl)cc1`, the viability at 5 µM in series [3] was found to be 23%. Further, the viability at 10 µM in series [2] lay within 39 to 53%. Moreover, in the series on B16, the IC50 came to 1.8 µM.
